These are literature values, as cited in patent US20230381101A1, “AQUEOUS PHARMACEUTICAL COMPOSITIONS COMPRISING SGLT-2 INHIBITORS” (Boehringer Ingelheim Vetmedica GmbH, priority 2022, published 2023).

For this series the following is noted: n-octanol/water; values taken from http://www.chemicalize.org/.
For the compound `OCC(O)CO` [propane-1,2,3-triol], the log10P is recorded as −1.84.
For `CCO` [ethanol], the log10P is −0.16.
With `CC(=O)N(C)C` [N,N-dimethylacetamide], the log10P was −0.583.
